Ten compounds from article PMC3914891, “Pentacyclic Nitrofurans with In Vivo Efficacy and Activity against Nonreplicating Mycobacterium tuberculosis” (PLoS ONE, 2014) can be followed below.

Values after ≈ are worked out from the molar mass of the structure shown.

The subject of assay [1] is 9a resistant clones of M. tuberculosis H37Rv. The assay is described as follows: microbe, parasite or virus in culture. The assay is classed as cell-based, Mycobacterium tuberculosis.
In another assay the test system is H37Rv-T3. The format is cell-based, M. tuberculosis.
Another assay has as its system H37Rv-5A1. The assay is classed as cell-based, M. tuberculosis.
The next assay has as its system H37Rv-14A1. The assay is classed as cell-based, M. tuberculosis.
Another assay deals with M. tuberculosis H37Rv. The assay is classed as cell-based, Mycobacterium tuberculosis.

Take `CC1COc2c(N3CCN(C)CC3)c(F)cc3c(=O)c(C(=O)O)cn1c23` (stereo not drawn) [ofloxacin]: in assay [1], the “sensitivity of 9a resistant clones to the drug” value (“sensitivity” below) is “retained sensitivity”.

Consider `O=[N+]([O-])c1cn2c(n1)OC[C@@H](OCc1ccc(OC(F)(F)F)cc1)C2` [PA-824], for which the MIC against H37Rv-T3 was 100 µg/mL (≈ 278 µM). Further, the MIC against H37Rv-5A1 came out at 50 µg/mL (≈ 139 µM). For the same compound, in the assay on H37Rv-14A1, the MIC turned out to be 50 µg/mL (≈ 139 µM). For the same compound, in assay [1], the “Cross resistance profile, Clone # 1” value was “S”; the “Cross resistance profile, Clone # 2” value is “S”; the “Cross resistance profile, Clone # 3” value is given as “S”; the “Cross resistance profile, Clone # 4” value is “S”. In addition, in assay [1], the “Cross resistance profile, Clone # 5” value was “R”; the “Cross resistance profile, Clone # 6” value is given as “S”; the “Cross resistance profile, Clone # 7” value was “S”; the “Cross resistance profile, Clone # 8” value was “S”. Also, in assay [1], the “Cross resistance profile, Clone # 9” value is recorded as “S” and the “Cross resistance profile, Parent” value is listed as “S”.

In the case of `NNC(=O)c1ccncc1` [Isoniazid], in assay [1], the “sensitivity” value is “retained sensitivity”.

Regarding `C[C@]1(COc2ccc(N3CCC(Oc4ccc(OC(F)(F)F)cc4)CC3)cc2)Cn2cc([N+](=O)[O-])nc2O1` [OPC-67683], in assay [1], the “Cross resistance profile, Clone # 1” value is “S”; the “Cross resistance profile, Clone # 2” value is recorded as “S”; the “Cross resistance profile, Clone # 3” value is listed as “S”; the “Cross resistance profile, Clone # 4” value is recorded as “S”. Besides, in assay [1], the “Cross resistance profile, Clone # 5” value is reported as “R”; the “Cross resistance profile, Clone # 6” value was “S”; the “Cross resistance profile, Clone # 7” value was “S”; the “Cross resistance profile, Clone # 8” value is “S”. In assay [1], the “Cross resistance profile, Clone # 9” value is “S” and the “Cross resistance profile, Parent” value is listed as “S”.

Consider `CC[C@@H](CO)NCCN[C@@H](CC)CO` [Ethambutol], for which the “sensitivity” value in assay [1] was “retained sensitivity”.

Consider `O=[N+]([O-])c1ccc(C2=NOC(c3ccc(N4CCOCC4)cc3)C2)o1` (stereo not drawn) [Compound 2], for which, in assay [1], the “Cross resistance profile, Clone # 1” value was “R”; the “Cross resistance profile, Clone # 2” value is “R”; the “Cross resistance profile, Clone # 3” value is reported as “R”; the “Cross resistance profile, Clone # 4” value is “R”. In addition, in assay [1], the “Cross resistance profile, Clone # 5” value was “R”; the “Cross resistance profile, Clone # 6” value is on record as “R”; the “Cross resistance profile, Clone # 7” value is reported as “R”; the “Cross resistance profile, Clone # 8” value is on record as “R”. Further, in assay [1], the “Cross resistance profile, Clone # 9” value is given as “R” and the “Cross resistance profile, Parent” value is “S”.

Turning to `CO[C@H]1/C=C/O[C@@]2(C)Oc3c(C)c(O)c4c(O)c(c(/C=N/N5CCN(C)CC5)c(O)c4c3C2=O)NC(=O)/C(C)=C\C=C\[C@H](C)[C@H](O)[C@@H](C)[C@@H](O)[C@@H](C)[C@H](OC(C)=O)[C@@H]1C` [Rifampin], the “sensitivity” value in assay [1] is on record as “retained sensitivity”.

`O=[N+]([O-])c1ccc(C2=NOC(c3ccc(N4CCC(Oc5ccc(OC(F)(F)F)cc5)CC4)cc3)C2)o1` (stereo not drawn) [Compound 9a, 3-(5-Nitrofuran-2-yl)-5-(4-(4-(4-(trifluoromethoxy)phenoxy)piperidin-1-yl)phenyl)-4,5-dihydroisoxazole] gave an MIC in the assay on H37Rv-T3 of 0.1 µg/mL (≈ 0.193 µM). Also, the MIC in the assay with H37Rv-5A1 was 0.05 µg/mL (≈ 0.0966 µM). In the assay with H37Rv-14A1, the MIC turned out to be 0.1 µg/mL (≈ 0.193 µM). In addition, in the assay on M. tuberculosis H37Rv, the “frequency of spontaneous resistance” value is given as 3×10^−7. In assay [1], the “Cross resistance profile, Clone # 1” value is “R”; the “Cross resistance profile, Clone # 2” value is given as “R”; the “Cross resistance profile, Clone # 3” value was “R”; the “Cross resistance profile, Clone # 4” value is “R”. Moreover, in assay [1], the “Cross resistance profile, Clone # 5” value is “R”; the “Cross resistance profile, Clone # 6” value is recorded as “R”; the “Cross resistance profile, Clone # 7” value is “R”; the “Cross resistance profile, Clone # 8” value is listed as “R”. In assay [1], the “Cross resistance profile, Clone # 9” value is given as “R” and the “Cross resistance profile, Parent” value was “S”. The MIC in assay [1] (Mycobacterium tuberculosis, H37RV) was more than 3.13 µg/mL.

With `CC(=O)NC[C@H]1CN(c2ccc(N3CCOCC3)c(F)c2)C(=O)O1` [Linezolid], the “sensitivity” value in assay [1] is “retained sensitivity”.

Consider `[H]/N=C(/N)N[C@H]1[C@H](O)[C@@H](O)[C@H](O[C@@H]2O[C@@H](C)[C@](O)(C=O)[C@H]2O[C@@H]2O[C@@H](CO)[C@H](O)[C@@H](O)[C@@H]2NC)[C@@H](N/C(N)=N\[H])[C@@H]1O` [Streptomycin], for which the “sensitivity” value in assay [1] is listed as “retained sensitivity”.
